Like-named read-outs stand apart in the source and are kept apart here.
Experiments:
Format in all cases: cell-based
[1] = tested on: Acinetobacter calcoaceticus; experiment: MIC, 2-fold dilution method in micro-well plate, A. calcoaceticus
Experimental: (§1) The in vitro antibiotic activity of the present compound is measured using 2-fold dilution method with a micro-well plate and the bacteria are inoculated in about 10^5 cfu/ml after an overnight culture in a brain-heart infusion (BHI) broth at 37° C. The novel compounds of the present invention are converted to a hydrochloride salt form and diluted with a sterilized distilled water to make 10 mg/ml aqueous solution. After the mother liquor wherein the compound is diluted to the two-fold concentration has been obtained in the form of an aqueous solution, the respective 0.1 ml of diluted liquor is transferred to a well and is inoculated with 0.1 ml of the culture fluid to make about (10^5 -10^6)/2 cfu/ml.
(§2) After cultivation at 37° C., the minimum inhibitory concentration (MIC) is measured and recorded in Table I-V.
Table I-V show the minimum inhibitory concentrations (MIC). […]

[2] = tested on: Citrobacter freundii ATCC 8090; experiment: MIC, 2-fold dilution method in micro-well plate, C. freundii
Experimental: as §1, §2
(§3) Table I-V show the minimum inhibitory concentrations (MIC).
Citrobacter freundii ATCC 8090

[3] = tested on: Enterobacter aerogenes ATCC 13048; experiment: MIC, 2-fold dilution method in micro-well plate, E. aerogenes; details: Klebsiella aerogenes
Experimental: as §1, §2, §3
Enterobacter aerogenes ATCC 13048

Enterobacter cloacae = experiment: MIC, 2-fold dilution method in micro-well plate, E. cloacae; details: read-out: Minimum Inhibitory Concentration
Experimental: as §1, §2, §3
Enterobacter cloacae ATCC 23355

[4] = tested on: Escherichia coli ATCC 25922; experiment: MIC, 2-fold dilution method in micro-well plate, E. coli
Experimental: as §1, §2, §3
Escherichia coli ATCC 25922

[5] = tested on: Haemophilus influenza ATCC 35056; experiment: MIC, 2-fold dilution method in micro-well plate, H. influenzae; details: H. influenzae ATCC35056, 37° C.; read-out: Minimum Inhibitory Concentration
Experimental: as §1, §2, §3
Haemophilus influenza ATCC 35056

[6] = tested on: Klebsiella pneumoniae ATCC 13883; experiment: MIC, 2-fold dilution method in micro-well plate, K. pneumoniae
Experimental: as §1, §2, §3
Klebsiella pneumoniae ATCC 13883

[7] = tested on: Proteus vulgaris ATCC 13315; experiment: MIC, 2-fold dilution method in micro-well plate, P. vulgaris
Experimental: as §1, §2, §3
Proteus vulgaris ATCC 13315

[8] = tested on: Pseudomonas aeruginosa ATCC 27853; experiment: MIC, 2-fold dilution method in micro-well plate, P. aeruginosa
Experimental: as §1, §2, §3
Pseudomonas aeruginosa ATCC 27853

[9] = tested on: Salmonella typhimurium ATCC 14028; experiment: MIC, 2-fold dilution method in micro-well plate, S. typhimurium; details: Salmonella enterica, read-out: Minimum Inhibitory Concentration
Experimental: as §1, §2, §3
Salmonella typhimurium ATCC 14028

[10] = tested on: Shigella flexneri ATCC 12022; experiment: MIC, 2-fold dilution method in micro-well plate, S. flexneri; details: S. flexneri ATCC12022, 37° C., read-out: Minimum Inhibitory Concentration
Experimental: as §1, §2, §3
Shigella flexneri ATCC 12022

[11] = tested on: Shigella sonnei ATCC 25931; experiment: MIC, 2-fold dilution method in micro-well plate, S. sonnei; details: S. sonnei ATCC25931, 37° C., read-out: Minimum Inhibitory Concentration
Experimental: as §1, §2, §3
Shigella sonnei ATCC 25931

[12] = tested on: Serratia marcescens ATCC 8100; experiment: MIC, 2-fold dilution method in micro-well plate, S. marcescens
Experimental: as §1, §2, §3
Serratia marcescens ATCC 8100

[13] = tested on: Streptococcus faecalis ATCC 19433; experiment: MIC, 2-fold dilution method in micro-well plate, S. faecalis ATCC 19433; details: Enterococcus faecalis; S. faecalis ATCC19433, 37° C.; read-out: Minimum Inhibitory Concentration
Experimental: as §1, §2, §3
Streptococcus faecalis ATCC 19433

[14] = tested on: Streptococcus faecalis ATCC 29212; experiment: MIC, 2-fold dilution method in micro-well plate, S. faecalis ATCC 29212; details: Enterococcus faecalis; S. faecalis ATCC29212, 37° C.; read-out: Minimum Inhibitory Concentration
Experimental: as §1, §2, §3
Streptococcus faecalis ATCC 29212

[15] = tested on: Streptococcus pneumoniae ATCC 6303; experiment: MIC, 2-fold dilution method in micro-well plate, S. pneumoniae; details: S. pneuinoniae ATCC6303, 37° C., read-out: Minimum Inhibitory Concentration
Experimental: as §1, §2, §3
Streptococcus pneumoniae ATCC 6303

[16] = tested on: Streptococcus pyrogens ATCC 19615; experiment: MIC, 2-fold dilution method in micro-well plate, S. pyrogens; details: S. pyrogenes ATCC19615, 37° C., read-out: Minimum Inhibitory Concentration
Experimental: as §1, §2, §3
Streptococcus pyrogens ATCC 19615

[17] = A. calcoaceticus ATCC8090 (as in tables), 37° C., read-out: Minimum Inhibitory Concentration
[18] = C. freundii ATCC8090, 37° C., read-out: Minimum Inhibitory Concentration
[19] = E. aerogenes ATCC13048, 37° C., read-out: Minimum Inhibitory Concentration
[20] = E. cloacae ATCC23355 (as in tables), 37° C.
[21] = E. coli ATCC25922, 37° C., read-out: Minimum Inhibitory Concentration
[22] = K. pneumoniae ATCC13883, 37° C., read-out: Minimum Inhibitory Concentration
[23] = P. aerugirnosa ATCC27853, 37° C., read-out: Minimum Inhibitory Concentration
[24] = S. marcescens ATCC8100, 37° C., read-out: Minimum Inhibitory Concentration
[25] = ATCC8090, read-out: Minimum Inhibitory Concentration
[26] = ATCC13048, read-out: Minimum Inhibitory Concentration
[27] = ATCC13883, read-out: Minimum Inhibitory Concentration
[28] = ATCC13315, read-out: Minimum Inhibitory Concentration
[29] = ATCC25922, read-out: Minimum Inhibitory Concentration
[30] = ATCC8100, read-out: Minimum Inhibitory Concentration
[31] = ATCC27853, read-out: Minimum Inhibitory Concentration

Row | SMILES | MIC [1, 17] | MIC [2, 18] | MIC [4, 21] | MIC [5] | MIC [8, 23] | MIC [10] | MIC [11] | MIC [12, 24] | MIC [13] | MIC [14] | MIC [15] | MIC [16] | MIC [2, 25] | MIC [3, 26] | MIC (Enterobacter cloacae) | MIC [6, 27] | MIC [7, 28] | MIC [9] | MIC [4, 29] | MIC [12, 30] | other results
1 | Cl.NC1CCN(c2nc3c(cc2F)c(=O)c(C(=O)O)cn3-c2ccc(F)cn2)C1 (stereo not drawn) [Example 16, 1-(5-fluoro-2-pyridyl)-6-fluoro-7-(3-amino-1-pyrrolidinyl)-1,4-dihydro-4-oxo-1,8-naphthyridine-3-carboxylic acid hydrochloride] | 0.156 µg/mL | 0.078 µg/mL | 0.078 µg/mL | 0.078 µg/mL | 0.156 µg/mL | 0.039 µg/mL | 0.02 µg/mL | 0.078 µg/mL | 1.25 µg/mL | 0.625 µg/mL | 1.25 µg/mL | 2.5 µg/mL | – | – | – | – | – | – | – | – | MIC [3, 19]: 0.313 µg/mL; MIC (Enterobacter cloacae; [20]): 0.156 µg/mL; MIC [6, 22]: 0.078 µg/mL; MIC ([7]; P. vulgaris ATCC13315, 37° C., read-out: Minimum Inhibitory Concentration): 0.078 µg/mL; MIC ([9]; S. typhisurium ATCC14028, 37° C.): 0.313 µg/mL
2 | Cl.O=C(O)c1cn(-c2ccc(F)cn2)c2cc(N3CCNCC3)c(F)cc2c1=O [Example 17, 1-(5-fluoro-2-pyridyl)-6-fluoro-7-(1-piperazinyl)-1,4-dihydro-4-oxoquinoline-3-carboxylic acid hydrochloride] | 2.5 µg/mL | – | 0.313 µg/mL | 1.25 µg/mL | 1.25 µg/mL | 0.625 µg/mL | 0.625 µg/mL | 2.5 µg/mL | 5 µg/mL | 2.5 µg/mL | 5 µg/mL | 5 µg/mL | 1.25 µg/mL | 1.25 µg/mL | 1.25 µg/mL | 0.625 µg/mL | 0.625 µg/mL | 1.25 µg/mL | – | – | –
3 | CC1CN(c2cc3c(cc2F)c(=O)c(C(=O)O)cn3-c2ccncc2F)CCN1.Cl (stereo not drawn) [Example 3, 1-(3-fluoro-4-pyridyl)-6-fluoro-7-(3-methyl-1-piperazinyl)-1,4-dihydro-4-oxoquinoline-3-carboxylic acid hydrochloride] | – | – | – | 1.25 µg/mL | 0.625 µg/mL | 2.5 µg/mL | 0.625 µg/mL | – | 2.5 µg/mL | 5 µg/mL | 5 µg/mL | 10 µg/mL | 1.25 µg/mL | 1.25 µg/mL | 0.625 µg/mL | 0.625 µg/mL | 0.625 µg/mL | 0.625 µg/mL | 0.625 µg/mL | 0.625 µg/mL | MIC [1, 25]: 0.625 µg/mL
4 | CC1CN(c2nc3c(cc2F)c(=O)c(C(=O)O)cn3-c2ccncc2F)CC(C)N1.Cl (stereo not drawn) [Example 10, 1-(3-fluoro-4-pyridyl)-6-fluoro-7-(3,5-dimethyl-1-piperazinyl)-1,4-dihydro-4-oxo-1,8-naphthyridine-3-carboxylic acid hydrochloride] | 10 µg/mL | 1.25 µg/mL | 1.25 µg/mL | 0.625 µg/mL | – | 0.625 µg/mL | 0.625 µg/mL | 2.5 µg/mL | 2.5 µg/mL | 5 µg/mL | 5 µg/mL | 10 µg/mL | – | – | 0.625 µg/mL | 0.625 µg/mL | 0.625 µg/mL | 0.625 µg/mL | – | – | MIC [3, 19]: 1.25 µg/mL; MIC [8, 31]: 0.25 µg/mL
5 | CC1CN(c2nc3c(cc2F)c(=O)c(C(=O)O)cn3-c2ccncc2F)CCN1.Cl (stereo not drawn) [Example 9, 1-(3-fluoro-4-pyridyl)-6-fluoro-7-(3-methyl-1-piperazinyl)-1,4-dihydro-4-oxo-1,8-naphthyridine-3-carboxylic acid hydrochloride] | 10 µg/mL | – | – | 1.25 µg/mL | – | 0.625 µg/mL | 0.625 µg/mL | – | 2.5 µg/mL | 2.5 µg/mL | 5 µg/mL | 10 µg/mL | 1.25 µg/mL | 0.625 µg/mL | 0.625 µg/mL | 1.25 µg/mL | 0.625 µg/mL | 0.625 µg/mL | 0.625 µg/mL | 1.25 µg/mL | MIC [8, 31]: 0.625 µg/mL
6 | Cl.O=C(O)c1cn(-c2ccncc2F)c2nc(N3CCNCC3)c(F)cc2c1=O [Example 7, 1-(3-fluoro-4-pyridyl)-6-fluoro-7-(1-piperazinyl)-1,4-dihydro-4-oxo-1,8-naphthyridine-3-carboxylic acid hydrochloride] | 2.5 µg/mL | 1.25 µg/mL | 0.625 µg/mL | 0.313 µg/mL | – | 0.156 µg/mL | 0.313 µg/mL | 1.25 µg/mL | 2.5 µg/mL | 5 µg/mL | 2.5 µg/mL | 5 µg/mL | – | – | – | – | 0.313 µg/mL | 0.313 µg/mL | – | – | MIC [3, 19]: 0.625 µg/mL; MIC (Enterobacter cloacae; [20]): 0.625 µg/mL; MIC [6, 22]: 0.625 µg/mL; MIC [8, 31]: 0.625 µg/mL
7 | CC1CN(c2cc3c(cc2F)c(=O)c(C(=O)O)cn3-c2ccncc2F)CC(C)N1.Cl (stereo not drawn) [Example 4, 1-(3-fluoro-4-pyridyl)-6-fluoro-7-(3,5-dimethyl-1-piperazinyl)-1,4dihydro-4-oxoquinoline-3-carboxylic acid hydrochloride] | 2.5 µg/mL | – | – | 1.25 µg/mL | 0.625 µg/mL | 1.25 µg/mL | 0.625 µg/mL | – | 5 µg/mL | 5 µg/mL | 10 µg/mL | 10 µg/mL | 1.25 µg/mL | 1.25 µg/mL | 0.625 µg/mL | 0.625 µg/mL | 0.625 µg/mL | 1.25 µg/mL | 1.25 µg/mL | 1.25 µg/mL | –
8 | CC1CN(c2cc3c(cc2F)c(=O)c(C(=O)O)cn3-c2ccc(F)cn2)CC(C)N1.Cl (stereo not drawn) [Example 20, 1-(5-fluoro-2-pyridyl)-6-fluoro-7-(3,5-dimethyl-1-piperazinyl)-1,4-dihydro-4-oxoquinoline-3-carboxylic acid hydrochloride] | – | – | – | 1.25 µg/mL | 1.25 µg/mL | 0.625 µg/mL | 0.313 µg/mL | – | 5 µg/mL | 2.5 µg/mL | 5 µg/mL | 10 µg/mL | 0.625 µg/mL | 1.25 µg/mL | 0.625 µg/mL | 0.625 µg/mL | 0.625 µg/mL | 1.25 µg/mL | 0.625 µg/mL | 0.625 µg/mL | MIC [1, 25]: 1.25 µg/mL
9 | Cl.O=C(O)c1cn(-c2ccc(F)cn2)c2c(F)c(N3CCNCC3)c(F)cc2c1=O [Example 23, 1-(5-fluoro-2-pyridyl)-6,8-difluoro-7-(1-piperazinyl)-1,4-dihydro-4-oxoquinoline-3-carboxylic acid hydrochloride] | 1.25 µg/mL | – | – | 0.625 µg/mL | 1.25 µg/mL | 0.313 µg/mL | 0.078 µg/mL | – | 5 µg/mL | 5 µg/mL | 2.5 µg/mL | 5 µg/mL | 0.625 µg/mL | 0.625 µg/mL | 0.625 µg/mL | – | 0.313 µg/mL | 0.313 µg/mL | 0.625 µg/mL | 0.625 µg/mL | MIC [6, 22]: 1.25 µg/mL

From patent US5496947A, “Quinolone carboxylic acid derivatives” (Dong Wha Pharmaceutical Industrial Co., Ltd., priority 1994, dated 1996)
